# Where two headings read alike, the source gives them in different places.
# T1: angiotensin-I-converting enzyme (ACE, EC 3.4.15.1, from rabbit lung) (rabbit) (UniProt P12822)
# T1 sequence: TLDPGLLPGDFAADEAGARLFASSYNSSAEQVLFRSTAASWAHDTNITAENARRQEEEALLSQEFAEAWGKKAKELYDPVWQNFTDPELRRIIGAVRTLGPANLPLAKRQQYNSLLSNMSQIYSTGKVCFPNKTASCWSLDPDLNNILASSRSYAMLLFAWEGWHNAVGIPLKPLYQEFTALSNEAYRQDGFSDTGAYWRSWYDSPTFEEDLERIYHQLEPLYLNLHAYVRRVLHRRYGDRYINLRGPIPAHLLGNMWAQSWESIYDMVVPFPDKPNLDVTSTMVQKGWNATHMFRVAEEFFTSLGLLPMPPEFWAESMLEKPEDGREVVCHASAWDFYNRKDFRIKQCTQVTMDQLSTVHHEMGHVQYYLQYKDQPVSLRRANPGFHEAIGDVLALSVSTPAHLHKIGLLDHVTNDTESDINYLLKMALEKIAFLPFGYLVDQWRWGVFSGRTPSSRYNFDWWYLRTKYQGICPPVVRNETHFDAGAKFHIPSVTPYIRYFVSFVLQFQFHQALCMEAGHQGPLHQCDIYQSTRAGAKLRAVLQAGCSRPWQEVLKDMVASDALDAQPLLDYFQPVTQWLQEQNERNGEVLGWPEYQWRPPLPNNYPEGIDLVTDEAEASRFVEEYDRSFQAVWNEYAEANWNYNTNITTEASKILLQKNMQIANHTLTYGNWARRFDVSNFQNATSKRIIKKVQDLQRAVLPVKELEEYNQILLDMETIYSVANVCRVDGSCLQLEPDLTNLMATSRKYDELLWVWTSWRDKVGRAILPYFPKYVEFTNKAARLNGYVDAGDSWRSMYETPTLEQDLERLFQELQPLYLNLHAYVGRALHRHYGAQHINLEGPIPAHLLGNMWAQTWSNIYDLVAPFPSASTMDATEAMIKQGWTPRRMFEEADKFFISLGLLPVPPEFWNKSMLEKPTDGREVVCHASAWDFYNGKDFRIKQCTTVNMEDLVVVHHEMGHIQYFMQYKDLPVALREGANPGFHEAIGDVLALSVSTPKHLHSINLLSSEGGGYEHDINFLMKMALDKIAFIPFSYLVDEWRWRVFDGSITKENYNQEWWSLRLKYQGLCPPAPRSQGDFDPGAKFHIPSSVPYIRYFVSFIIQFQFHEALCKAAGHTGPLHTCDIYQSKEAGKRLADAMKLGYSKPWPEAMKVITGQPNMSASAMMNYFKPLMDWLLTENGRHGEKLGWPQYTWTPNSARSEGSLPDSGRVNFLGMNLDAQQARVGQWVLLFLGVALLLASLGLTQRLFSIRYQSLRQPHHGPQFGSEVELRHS
# B1: PPLLFAAL (Pro-Pro-Leu-Leu-Phe-Ala-Ala-Leu) (peptide)
# peptide: PPLLFAAL
# Legend:
# [1] = test system: spontaneously hypertensive rats (SHRs); assay: Antihypertensive effect in SHRs, intravenous, tail-cuff SBP/DBP; assay type: in vivo; details: 5 mg/kg intravenous single dose
# Procedure: Animals were obtained from Vital River Laboratory Animal Technology (Beijing, China), who also performed the blood pressure measurements in spontaneously hypertensive rats (SHRs) with a tail systolic blood pressure (SBP) of over 180 mmHg. Animals were fed a normal diet, and tap water was freely available. SHRs (11 weeks, 240 ± 20 g body weight) were raised at room temperature (25 °C) under a 12 h light/dark cycle. […] Captopril (5 mg/kg) was used as a positive control, and the negative control group was injected with an equal volume of saline. The SBP and DBP of the rats were measured using the tail-cuff method before administration and at 2, 4, 6, 12, and 24 h post-administration, using a BP-98A blood pressure monitor (Softron Biotechnology, Beijing, China) after heating the SHRs at 37 °C for 30 min in a warming chamber. All the rats received humane care conforming to the National Institutes of Health Guide for Care and Use of Laboratory Animals. This study was approved by the Ethics Committee of Guangdong medical laboratory animal center (No. 20211001).
# Statistical analysis was performed using SPSS 19.0 software ([…]). Experimental data are presented as means ± standard deviations (SD) and were statistically evaluated using one-way analysis of variance (ANOVA) with Duncan’s test. Origin 9.0 (OriginLab, Northampton, MA, USA) software was used to process the data.
# ACE = details: cited from earlier work; for ACE-inhibitory activity, in words: shark meat hydrolysates, ref [16] Hao Wu et al.
# From the text: (§1) Marine organisms, which are rich in unique bioactive proteins, have been widely used in the search for ACE-inhibitory peptides. According to previous studies, many novel ACE-inhibitory peptides with efficient antihypertensive effects were obtained from marine organisms. […] Liu et al. investigated the antihypertensive activity of a protein hydrolysate that was made from Rhopilema esc ...
# SHRs = details: oral administration in SHRs; ref [17] Lee et al.; cited from earlier work
# From the text: as §1
# [2] = molecular target: T1, angiotensin-I-converting enzyme (ACE, EC 3.4.15.1, from rabbit lung) (rabbit)
# [3] = ref [14] Ghassem et al., read-out: IC50, ACE-inhibitory peptides from snakehead fish
molecule,measurement,setting,value
"C[C@H](CS)C(=O)N1CCC[C@H]1C(=O)O [Captopril, captopril]",systolic blood pressure (SBP) at 4 h,"[1]; 4 h, p < 0.05",151 mmHg
same,systolic blood pressure (SBP) at 24 h,[1]; 24 h,161 mmHg
same,"systolic blood pressure (SBP), starting value",[1]; value from which SBP fell,190 mmHg
Cys-Phe,"ACE-inhibitory activity, in words",ACE,high ACE-inhibitory activity
Glu-Tyr,"ACE-inhibitory activity, in words",ACE,high ACE-inhibitory activity
Gly-Asp-Leu-Gly-Lys-Thr-Thr-Thr-Val-Ser-Asn-Trp-Ser-Pro-Pro-Lys-Try-Lys-Asp-Thr-Pro [PTFP],"antihypertensive effect, in words",SHRs,has an antihypertensive effect after oral administration in SHRs
same,"ACE inhibition mode, tuna frame peptide",ACE; ref [17] Lee et al.,non-competitive inhibitor
same,IC50,"ACE; ref [17] Lee et al., read-out: IC50, ACE-inhibitory peptide from tuna frame protein",11300 nM
LYPPP,IC50,ACE; [3],1300 nM
Met-Phe,"ACE-inhibitory activity, in words",ACE,high ACE-inhibitory activity
Phe-Glu,"ACE-inhibitory activity, in words",ACE,high ACE-inhibitory activity
YSMYPP,IC50,ACE; [3],2800 nM
B1,"ACE-inhibitory activity (hydrolysis of hippuryl-L-histidyl-L-leucine to hippuric acid, RP-HPLC at 220 nm, 37 °C, pH 8.3, 0.3 M NaCl), IC50 of the synthetic peptide",[2],28 μmol·L^−1
